17 molecules from ChEMBL document CHEMBL5291721, “A preclinical secondary pharmacology resource illuminates target-adverse drug reaction associations of marketed drugs” (Nat Commun, 2023) can be followed below.

Experiment [1] has as its target T1, Amine oxidase [flavin-containing] A (Homo sapiens, UniProt P21397).
T1 sequence (P21397 whole entry): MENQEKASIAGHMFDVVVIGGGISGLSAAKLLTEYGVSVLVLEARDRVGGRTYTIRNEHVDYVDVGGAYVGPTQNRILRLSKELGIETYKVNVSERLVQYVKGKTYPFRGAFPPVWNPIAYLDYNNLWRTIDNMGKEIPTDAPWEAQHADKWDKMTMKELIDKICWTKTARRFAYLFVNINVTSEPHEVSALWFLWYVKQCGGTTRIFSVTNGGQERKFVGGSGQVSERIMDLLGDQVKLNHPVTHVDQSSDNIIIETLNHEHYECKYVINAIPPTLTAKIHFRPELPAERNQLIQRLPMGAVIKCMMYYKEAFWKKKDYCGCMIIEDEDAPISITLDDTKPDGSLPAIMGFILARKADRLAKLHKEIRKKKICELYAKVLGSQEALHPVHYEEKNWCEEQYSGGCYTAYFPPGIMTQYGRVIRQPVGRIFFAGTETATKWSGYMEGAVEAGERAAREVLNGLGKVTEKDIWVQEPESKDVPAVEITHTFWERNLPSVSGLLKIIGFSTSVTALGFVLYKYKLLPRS
The format is functional.

The target in experiment [2] is D(3) dopamine receptor (Homo sapiens, UniProt P35462).
Sequence of D(3) dopamine receptor (P35462 whole entry): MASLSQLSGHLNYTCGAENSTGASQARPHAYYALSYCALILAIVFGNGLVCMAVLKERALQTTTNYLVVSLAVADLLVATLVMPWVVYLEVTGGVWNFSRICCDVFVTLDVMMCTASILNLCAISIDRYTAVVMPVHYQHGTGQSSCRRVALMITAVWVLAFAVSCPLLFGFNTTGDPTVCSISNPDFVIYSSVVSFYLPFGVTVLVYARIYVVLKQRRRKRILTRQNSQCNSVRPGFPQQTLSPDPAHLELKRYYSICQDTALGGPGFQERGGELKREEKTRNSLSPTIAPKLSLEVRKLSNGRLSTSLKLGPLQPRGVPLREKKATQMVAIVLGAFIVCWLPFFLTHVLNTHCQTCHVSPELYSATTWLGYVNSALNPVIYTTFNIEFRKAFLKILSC
For experiment [3], the target named is Voltage-gated inwardly rectifying potassium channel KCNH2 (Homo sapiens, UniProt Q12809). The format is functional.
Sequence of Voltage-gated inwardly rectifying potassium channel KCNH2 (Q12809 whole entry): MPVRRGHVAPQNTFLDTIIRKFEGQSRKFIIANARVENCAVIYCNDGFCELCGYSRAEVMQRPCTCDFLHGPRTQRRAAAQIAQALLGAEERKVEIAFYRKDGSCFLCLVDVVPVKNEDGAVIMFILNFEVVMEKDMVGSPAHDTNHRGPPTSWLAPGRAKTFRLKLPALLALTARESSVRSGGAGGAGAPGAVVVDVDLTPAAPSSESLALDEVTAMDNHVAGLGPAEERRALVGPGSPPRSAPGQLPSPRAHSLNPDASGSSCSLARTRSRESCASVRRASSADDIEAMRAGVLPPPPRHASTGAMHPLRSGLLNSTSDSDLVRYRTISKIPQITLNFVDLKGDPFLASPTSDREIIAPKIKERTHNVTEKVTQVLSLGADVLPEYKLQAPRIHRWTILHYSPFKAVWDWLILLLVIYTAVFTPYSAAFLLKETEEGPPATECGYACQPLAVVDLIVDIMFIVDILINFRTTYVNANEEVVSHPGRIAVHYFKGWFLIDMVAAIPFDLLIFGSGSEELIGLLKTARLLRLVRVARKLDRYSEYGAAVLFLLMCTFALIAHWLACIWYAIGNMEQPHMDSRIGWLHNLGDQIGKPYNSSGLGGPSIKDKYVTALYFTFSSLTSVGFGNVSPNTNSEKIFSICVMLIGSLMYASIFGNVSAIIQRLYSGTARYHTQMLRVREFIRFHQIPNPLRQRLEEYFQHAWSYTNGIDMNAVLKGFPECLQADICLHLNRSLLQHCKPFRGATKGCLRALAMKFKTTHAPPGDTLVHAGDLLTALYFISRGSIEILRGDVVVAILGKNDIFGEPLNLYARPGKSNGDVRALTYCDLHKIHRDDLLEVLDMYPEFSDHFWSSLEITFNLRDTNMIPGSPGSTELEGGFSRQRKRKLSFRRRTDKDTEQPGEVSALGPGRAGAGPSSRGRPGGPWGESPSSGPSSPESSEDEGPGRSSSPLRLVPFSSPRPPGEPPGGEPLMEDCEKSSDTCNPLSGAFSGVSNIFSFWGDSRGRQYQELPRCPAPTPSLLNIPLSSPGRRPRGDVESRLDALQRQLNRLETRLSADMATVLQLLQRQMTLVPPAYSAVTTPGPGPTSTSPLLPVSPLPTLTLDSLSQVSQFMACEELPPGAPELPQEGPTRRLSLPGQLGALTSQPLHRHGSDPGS
In experiment [4] the target is T2, Glucocorticoid receptor (Homo sapiens, UniProt P04150).
T2 sequence (P04150 whole entry): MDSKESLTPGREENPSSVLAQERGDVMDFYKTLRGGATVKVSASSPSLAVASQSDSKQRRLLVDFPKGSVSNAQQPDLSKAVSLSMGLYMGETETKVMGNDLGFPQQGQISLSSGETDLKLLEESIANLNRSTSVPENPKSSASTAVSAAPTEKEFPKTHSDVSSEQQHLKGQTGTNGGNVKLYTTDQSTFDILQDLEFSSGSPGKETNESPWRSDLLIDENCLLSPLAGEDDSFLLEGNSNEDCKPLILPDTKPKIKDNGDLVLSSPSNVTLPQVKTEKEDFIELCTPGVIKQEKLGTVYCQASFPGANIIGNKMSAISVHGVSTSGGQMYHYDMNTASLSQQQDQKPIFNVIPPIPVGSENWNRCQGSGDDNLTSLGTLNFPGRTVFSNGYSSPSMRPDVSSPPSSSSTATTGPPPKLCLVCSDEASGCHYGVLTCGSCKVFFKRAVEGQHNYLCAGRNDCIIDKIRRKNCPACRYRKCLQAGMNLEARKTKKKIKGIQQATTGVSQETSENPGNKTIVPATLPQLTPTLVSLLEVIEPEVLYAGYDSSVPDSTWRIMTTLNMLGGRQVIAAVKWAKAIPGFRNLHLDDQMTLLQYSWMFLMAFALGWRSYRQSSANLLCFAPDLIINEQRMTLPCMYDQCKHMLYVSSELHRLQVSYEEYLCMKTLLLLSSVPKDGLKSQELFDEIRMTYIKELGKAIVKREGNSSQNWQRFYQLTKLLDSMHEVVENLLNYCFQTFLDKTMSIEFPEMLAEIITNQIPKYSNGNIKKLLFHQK

The target of experiment [5] is T3, Type-1 angiotensin II receptor (Homo sapiens, UniProt P30556).
T3 sequence (P30556 whole entry): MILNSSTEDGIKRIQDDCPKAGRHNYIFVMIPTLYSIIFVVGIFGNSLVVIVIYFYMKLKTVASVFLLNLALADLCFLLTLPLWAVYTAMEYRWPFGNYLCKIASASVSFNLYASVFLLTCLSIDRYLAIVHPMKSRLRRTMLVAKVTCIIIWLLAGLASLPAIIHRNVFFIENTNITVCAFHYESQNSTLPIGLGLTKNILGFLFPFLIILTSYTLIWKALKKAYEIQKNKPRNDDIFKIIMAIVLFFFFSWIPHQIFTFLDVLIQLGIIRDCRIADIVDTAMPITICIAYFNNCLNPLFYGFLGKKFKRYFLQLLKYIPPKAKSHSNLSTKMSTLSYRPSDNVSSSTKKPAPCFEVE

Experiment [6] concerns the target T4, Prostaglandin G/H synthase 1 (Rattus norvegicus, UniProt Q63921).
T4 sequence (Q63921 whole entry): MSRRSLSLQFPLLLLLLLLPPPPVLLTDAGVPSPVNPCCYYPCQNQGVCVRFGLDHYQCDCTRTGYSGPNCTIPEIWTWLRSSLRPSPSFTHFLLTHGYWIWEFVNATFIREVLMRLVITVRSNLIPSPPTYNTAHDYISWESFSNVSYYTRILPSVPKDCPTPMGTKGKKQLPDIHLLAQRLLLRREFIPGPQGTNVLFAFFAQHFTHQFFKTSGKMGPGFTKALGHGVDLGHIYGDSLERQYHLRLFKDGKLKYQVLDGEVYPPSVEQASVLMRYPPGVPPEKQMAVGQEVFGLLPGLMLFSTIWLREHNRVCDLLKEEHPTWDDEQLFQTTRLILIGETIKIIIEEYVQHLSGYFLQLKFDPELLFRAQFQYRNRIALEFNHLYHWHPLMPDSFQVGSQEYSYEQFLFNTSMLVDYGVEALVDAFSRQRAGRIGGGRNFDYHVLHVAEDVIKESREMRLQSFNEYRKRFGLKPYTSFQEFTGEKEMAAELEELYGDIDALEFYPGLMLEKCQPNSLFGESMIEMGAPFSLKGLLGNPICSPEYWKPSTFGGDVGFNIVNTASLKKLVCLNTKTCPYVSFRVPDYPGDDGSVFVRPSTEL
The experiment is classed as functional.

The target of experiment [7] is T5, 5-hydroxytryptamine receptor 2C (Homo sapiens, UniProt P28335).
T5 sequence (P28335 whole entry): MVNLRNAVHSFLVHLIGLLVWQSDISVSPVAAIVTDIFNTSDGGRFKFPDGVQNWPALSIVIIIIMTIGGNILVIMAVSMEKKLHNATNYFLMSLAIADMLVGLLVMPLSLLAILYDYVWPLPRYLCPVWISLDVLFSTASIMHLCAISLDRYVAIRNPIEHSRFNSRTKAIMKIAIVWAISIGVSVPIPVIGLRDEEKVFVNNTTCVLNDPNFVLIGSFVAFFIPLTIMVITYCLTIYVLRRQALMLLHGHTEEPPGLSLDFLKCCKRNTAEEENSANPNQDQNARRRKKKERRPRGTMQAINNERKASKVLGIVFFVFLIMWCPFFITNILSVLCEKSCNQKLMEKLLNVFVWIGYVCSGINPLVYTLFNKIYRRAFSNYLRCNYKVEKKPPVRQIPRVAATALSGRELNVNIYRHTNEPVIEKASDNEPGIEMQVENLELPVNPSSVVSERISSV

A value given as a limit tells only on which side of the number the result lay.
Further: assay procedure not described here.

For the molecule `CC(C)N(CCCCOCC(=O)O)c1cnc(-c2ccccc2)c(-c2ccccc2)n1`, the half-maximal activity concentration (AC50) in experiment [1] was over 30 µM; in experiment [2], over 30 µM; in experiment [3], over 30 µM; in experiment [4], over 30 µM; in experiment [5], 17 µM; in experiment [6] it was over 30 µM. The molecule also showed an AC50 in experiment [7] of over 30 µM.

For `C[N+]12CCC(CC1)C(OC(=O)C(O)(c1ccccc1)c1ccccc1)C2` (centres undefined), the AC50 was over 30 µM in experiment [1]; over 30 µM in experiment [2]; 1.3 µM in experiment [3]; over 30 µM in experiment [4]; over 30 µM in experiment [5]; over 30 µM in experiment [6]. For the same molecule, the AC50 in experiment [7] is over 30 µM.

Regarding `CC(=O)c1ccc(S(=O)(=O)NC(=O)NC2CCCCC2)cc1` [ACETOHEXAMIDE], the half-maximal activity concentration (AC50) is over 10 µM in experiment [1]; over 30 µM in experiment [2]; over 30 µM in experiment [3]; over 10 µM in experiment [4]; over 10 µM in experiment [5]; over 10 µM in experiment [6]. The AC50 in experiment [7] is over 30 µM.

With `COc1cc(C)c(/C=C/C(C)=C/C=C/C(C)=C/C(=O)O)c(C)c1C` [ACITRETIN], the concentration at half-maximal activity (AC50) in experiment [1] was over 10 µM; in experiment [2], over 30 µM; in experiment [3], over 30 µM; in experiment [4], over 30 µM; in experiment [5], over 10 µM; in experiment [6], 0.517 µM. This molecule yielded an AC50 in experiment [7] of over 30 µM.

As to `COc1ccc(C2C(=O)c3ccccc3C2=O)cc1` [ANISINDIONE], the half-maximal activity concentration (AC50) in experiment [1] was 91 µM; in experiment [2] it was over 30 µM; in experiment [3], over 30 µM; in experiment [4], over 30 µM; in experiment [5], over 10 µM; in experiment [6], 13 µM. In experiment [7], the half-maximal activity concentration (AC50) is over 30 µM.

With `O=C(O)CCNC(=O)c1ccc(/N=N/c2ccc(O)c(C(=O)O)c2)cc1` [BALSALAZIDE], the AC50 in experiment [1] was over 30 µM; in experiment [2], over 30 µM; in experiment [3], over 30 µM; in experiment [4], over 30 µM; in experiment [5], 27.6 µM; in experiment [6], over 30 µM. In experiment [7], the AC50 is over 30 µM.

As for `NS(=O)(=O)c1cc2c(cc1Cl)N=C(CSCc1ccccc1)NS2(=O)=O` [BENZTHIAZIDE], the AC50 in experiment [1] is over 30 µM; in experiment [2] it was over 30 µM; in experiment [3], over 30 µM; in experiment [4], over 30 µM; in experiment [5], over 10 µM; in experiment [6] it was over 10 µM. The molecule also came in with an AC50 in experiment [7] of over 30 µM.

For `O=C(CCCN1CCC(O)(c2ccc(Br)cc2)CC1)c1ccc(F)cc1` [BROMPERIDOL], the AC50 is over 30 µM in experiment [1]; 0.041 µM in experiment [2]; 0.23 µM in experiment [3]; over 30 µM in experiment [4]; over 30 µM in experiment [5]; over 30 µM in experiment [6]. In addition, in experiment [7], the AC50 is over 30 µM.

Turning to `Clc1ccc(CCC(Cn2ccnc2)Sc2c(Cl)cccc2Cl)cc1` (centres undefined) [BUTOCONAZOLE], the concentration at half-maximal activity (AC50) was over 30 µM in experiment [1]; over 30 µM in experiment [2]; 5.9 µM in experiment [3]; 18 µM in experiment [4]; 30 µM in experiment [5]; 14 µM in experiment [6]. In addition, the AC50 in experiment [7] was over 30 µM.

On to `CO/N=C(\C(=O)N[C@@H]1C(=O)N2C(C(=O)O)=C(CSc3nc(=O)c(=O)[nH]n3C)CS[C@H]12)c1csc(N)n1` [CEFTRIAXONE], for which the AC50 in experiment [1], in experiment [2], in experiment [3], in experiment [4], in experiment [5] and in experiment [6] was over 30 µM each time. For the same molecule, the AC50 in experiment [7] is over 30 µM.

On to `CC(CN(C)C)C(C)(O)Cc1ccc(Cl)cc1` (centres undefined) [CLOBUTINOL], for which the AC50 in experiment [1] is over 10 µM; in experiment [2] it was over 30 µM; in experiment [3], 8.45 µM; in experiment [4] it was over 30 µM; in experiment [5] it was over 30 µM; in experiment [6], over 30 µM. This molecule also gave a concentration at half-maximal activity (AC50) in experiment [7] of over 30 µM.

For `CCOC(=O)C(C)(C)Oc1ccc(Cl)cc1` [CLOFIBRATE], the AC50 in experiment [1] is over 10 µM; in experiment [2] it was over 30 µM; in experiment [3], over 30 µM; in experiment [4], over 30 µM; in experiment [5] it was over 30 µM; in experiment [6], over 30 µM. The molecule further had an AC50 in experiment [7] of over 30 µM.

In the case of `CN1CCN=C(c2ccccc2)c2cc(Cl)ccc21` [MEDAZEPAM], the half-maximal activity concentration (AC50) was over 30 µM in experiment [1]; over 30 µM in experiment [2]; over 30 µM in experiment [4]; over 30 µM in experiment [5]; 16 µM in experiment [6]; 25 µM in experiment [7].

With `COc1ccc2cc(CCC(C)=O)ccc2c1` [NABUMETONE], the AC50 in experiment [2] is over 30 µM; in experiment [3] it was over 30 µM; in experiment [4], over 10 µM; in experiment [5], over 10 µM; in experiment [6] it was over 10 µM; in experiment [7], over 30 µM.

In the case of `COc1cc2[nH]c(C)c(CCN3CCN(c4ccccc4)CC3)c2cc1OC` [OXYPERTINE], the concentration at half-maximal activity (AC50) in experiment [1] was over 30 µM; in experiment [2] it was over 10 µM; in experiment [4] it was over 30 µM; in experiment [5], over 30 µM; in experiment [6], over 30 µM; in experiment [7], 0.49 µM.

As for `Fc1ccc([C@@H]2CCNC[C@H]2COc2ccc3c(c2)OCO3)cc1` [PAROXETINE], the AC50 in experiment [1] is over 10 µM; in experiment [2], over 10 µM; in experiment [4], over 30 µM; in experiment [5], over 30 µM; in experiment [6], over 30 µM; in experiment [7] it was over 30 µM.

In the case of `COc1cc(C(=O)OCc2cccc(COC(=O)c3cc(OC)c(OC)c(OC)c3)n2)cc(OC)c1OC` [PIROZADIL], the AC50 in experiment [1], in experiment [2], in experiment [3], in experiment [4], in experiment [5] and in experiment [6] was over 30 µM throughout.
